Key:
[1] = Tested for inhibition of glucosamine-6P synthase; design: species or system Escherichia coli
[2] = Tested for inhibition of fructose-6P synthase

Row | Ki [1] [µM] | Ki [2] [µM] | SMILES
1 | 23 |  | O=C(O)C1CCC=N1 (racemic)
2 |  | 25 | NC(CO)C(O)C(O)C(O)COP(=O)(O)O (centres undefined)
3 | 0.22 |  | NC(CC1CCC(=O)C2OC12)C(=O)O (centres undefined)
4 | 0.15 |  | NC(=O)/C=C/C(=O)NCC(N)C(=O)O (centres undefined)

— ChEMBL document CHEMBL1128876, “Nitrogen transfer in E. coli glucosamine-6P synthase. Investigations using substrate and bisubstrate analogs” (Bioorg Med Chem Lett, 1995)
